13 molecules from patent publication US8492384B2 (Korea Institute of Science and Technology, priority 2008, dated 2013) can be followed below.

Usually IC50 stands for the point on the concentration scale where inhibition reaches its midpoint.

Holding throughout (assay type): cell-based
The target in assay [1] is T1, α1G T-type calcium channels (Homo sapiens, UniProt O43497).
T1 construct: host or cells: HEK293
Nature of the assay: T-type calcium channel activity using the FDSS6000 (HTS, Fluo-3/AM, KCl-induced intracellular calcium change). As to conditions: percent inhibition at 10 μM, HEK293 cells stably expressing α1G T-type calcium channels and Kir2.1, KCl 75 mM activation; for inhibition at 10 µM: read-out: FDSS (%, 10 μM). How it is done: (§1) The novel compounds of the present invention presented as the formula 1 were tested for their antagonistic activities against T-type calcium channels using the methods described below. More specifically, the synthesized compounds were screened as follows: First, as a primary screening, the compounds having 40% or higher of antagonistic activities against T-type calcium channels were selected using the FDSS6000, a high throughput screening (HTS) device. Then, as a secondary screening, the IC50 (effective inhibitory concentration) values were obtained using the electrophysiological methods.
1) Methods for the Measurements of T-Type Calcium Channel Activity Using the FDSS6000
12 to 24 hours prior to the FDSS-based HTS assay, HEK293 cells stably expressing both α1G T-type calcium channels and Kir2.1 channels (α1G cell line: KCTC 10519BP, KRIBB (Korea Research Institute of Bioscience and Biotechnology) (GENE BANK) were seeded onto the 96-well plate coated with poly-L-lysine (0.05 mg/mL) at a density of 4×10^4 cells/well using a cell distributor (Titertek, USA). On the following day, the cells attached onto the 96-well plate were washed three times with a HEPES-buffered solution (150 mM NaCl, 5 mM KCl, 1 mM MgCl2, 2 mM CaCl2, 10 mM HEPES, 10 mM glucose, and pH 7.4) using an automatic 96-well plate washer (BioTek, USA), and then labeled with a fluorescent calcium indicator dye, Fluo-3/AM (5 μM) and 0.001% Pluronic F-127 in a HEPES-buffered solution at room temperature for 1 hour and then washed again with a HEPES-buffered solution twice. 10 minutes prior to the FDSS6000 measurements, the cells was washed with a HEPES-buffered solution containing 10 mM CaCl2 once and the final volume was adjusted.
In addition to the 96-well plates with cells, the two drug plates were prepared: one containing KCl (final concentration of 75 mM) for the activation of T-type calcium channels, and the other containing testing compounds (blocking agents of T-type calcium channels). Since most cell-based HTS devices are provided with a liquid application system for drug injection but not with a liquid absorption system, the KCl solution and the blocking agents for screening were prepared at concentrations five times higher than the final concentrations in the 10 mM CaCl2 HEPES-buffered solution, and then diluted in the cell plate, and the activities were measured. The specific method of the FDSS6000 measurements is as follows: For the FDSS6000 measurements, after the 20-sec baseline recordings, cells were preincubated with drugs for 75 seconds and the change in intracellular calcium concentration induced by KCl was measured. The percent inhibition by a test compound was calculated as integrated values of 340/380 fluorescent ratio of untreated and drug-treated cells. The control drug was 10 μM of Mibefradil®.
In details, cells were selectively exposed to 340 nm and 380 nm light excited by 4 xenon lamps installed in FDSS6000 using a computer-controlled filter wheel. The emitter fluorescence light through a 515 nm long-pass filter was passed by a freezing digital CCD camera mounted on the device. Data were collected every 1.23 seconds, and an average value of 340/380 fluorescent ratio for each well was obtained using a digital fluorescent analyzer. Data acquisition and analysis were performed using a program provided by Hamamatsu Photonics.
A general note: Calcium assays in cells follow changes in intracellular calcium, usually with a dye or a luminescent sensor.

Assay [2] addresses T1, α1G T-type calcium channels. Description: T-type calcium channel activity using electrophysiological whole-cell patch-clamp technique. The note with it: percent inhibition of inward peak currents, HEK293 cells expressing α1G, head prints 100 μM. For orientation: Patch clamp records ionic current or voltage across a cell membrane.
Assay [3] shares this target. The description is as above. The note with it: HEK293 cells expressing α1G T-type calcium channels. How it is done:
as §1
2) Methods for the Measurements of T-Type Calcium Channel Activity Using an Electrophysiological Whole-Cell Patch-Clamp Technique
HEK293 cells stably expressing T-type calcium channels were cultured in DMEM (Dulbecco's modified Eagle's medium) containing 10% (v/v) fetal bovine serum and 1% penicillin/streptomycin (v/v) in humidified 5% CO2 at 36.5° C. Cells expressing α1GT-type calcium channels were selected using G-418 (0.5 mg/mL) in the culture medium. The culture medium was replaced with a fresh one every 3-4 days, and cells were subcultured every week.
Cells were seeded onto the coverglass coated with poly-L-lysine (0.5 mg/mL) for the measurements of T-type calcium channel activity 2-7 days prior to the recordings. Whole-cell recordings of T-type calcium channel currents were performed using an EPC-9 patch clamp amplifier (HEKA, Germany). Whole-cell currents were recorded using micropipettes with resistance of 3-4 MΩ with the pipette (intracellular) solution containing (in mM): 130 KCl, 11 EGTA, 5 Mg-ATP, and 10 HEPES, pH to 7.4 and with the bath (extracellular) solution containing (in mM): 140 NaCl, 2 CaCl2, and 10 HEPES, pH to 7.4. The inward currents of T-type calcium channels were evoked by the test pulses of −30 mV for 50 ms at a holding potential of −100 mV every 10 seconds.
Each compound was dissolved in dimethylsulfoxide (DMSO) as 10 mM stock solutions and diluted in the bath solution to 10 μM (containing 0.1% DMSO). […] More specifically, each compound was perfused to the bath for about 30-60 seconds, and the inhibition of the inward peak currents by a test compound was calculated as a percent inhibition from which the IC50 values were determined.

T1 sequence (O43497 whole entry): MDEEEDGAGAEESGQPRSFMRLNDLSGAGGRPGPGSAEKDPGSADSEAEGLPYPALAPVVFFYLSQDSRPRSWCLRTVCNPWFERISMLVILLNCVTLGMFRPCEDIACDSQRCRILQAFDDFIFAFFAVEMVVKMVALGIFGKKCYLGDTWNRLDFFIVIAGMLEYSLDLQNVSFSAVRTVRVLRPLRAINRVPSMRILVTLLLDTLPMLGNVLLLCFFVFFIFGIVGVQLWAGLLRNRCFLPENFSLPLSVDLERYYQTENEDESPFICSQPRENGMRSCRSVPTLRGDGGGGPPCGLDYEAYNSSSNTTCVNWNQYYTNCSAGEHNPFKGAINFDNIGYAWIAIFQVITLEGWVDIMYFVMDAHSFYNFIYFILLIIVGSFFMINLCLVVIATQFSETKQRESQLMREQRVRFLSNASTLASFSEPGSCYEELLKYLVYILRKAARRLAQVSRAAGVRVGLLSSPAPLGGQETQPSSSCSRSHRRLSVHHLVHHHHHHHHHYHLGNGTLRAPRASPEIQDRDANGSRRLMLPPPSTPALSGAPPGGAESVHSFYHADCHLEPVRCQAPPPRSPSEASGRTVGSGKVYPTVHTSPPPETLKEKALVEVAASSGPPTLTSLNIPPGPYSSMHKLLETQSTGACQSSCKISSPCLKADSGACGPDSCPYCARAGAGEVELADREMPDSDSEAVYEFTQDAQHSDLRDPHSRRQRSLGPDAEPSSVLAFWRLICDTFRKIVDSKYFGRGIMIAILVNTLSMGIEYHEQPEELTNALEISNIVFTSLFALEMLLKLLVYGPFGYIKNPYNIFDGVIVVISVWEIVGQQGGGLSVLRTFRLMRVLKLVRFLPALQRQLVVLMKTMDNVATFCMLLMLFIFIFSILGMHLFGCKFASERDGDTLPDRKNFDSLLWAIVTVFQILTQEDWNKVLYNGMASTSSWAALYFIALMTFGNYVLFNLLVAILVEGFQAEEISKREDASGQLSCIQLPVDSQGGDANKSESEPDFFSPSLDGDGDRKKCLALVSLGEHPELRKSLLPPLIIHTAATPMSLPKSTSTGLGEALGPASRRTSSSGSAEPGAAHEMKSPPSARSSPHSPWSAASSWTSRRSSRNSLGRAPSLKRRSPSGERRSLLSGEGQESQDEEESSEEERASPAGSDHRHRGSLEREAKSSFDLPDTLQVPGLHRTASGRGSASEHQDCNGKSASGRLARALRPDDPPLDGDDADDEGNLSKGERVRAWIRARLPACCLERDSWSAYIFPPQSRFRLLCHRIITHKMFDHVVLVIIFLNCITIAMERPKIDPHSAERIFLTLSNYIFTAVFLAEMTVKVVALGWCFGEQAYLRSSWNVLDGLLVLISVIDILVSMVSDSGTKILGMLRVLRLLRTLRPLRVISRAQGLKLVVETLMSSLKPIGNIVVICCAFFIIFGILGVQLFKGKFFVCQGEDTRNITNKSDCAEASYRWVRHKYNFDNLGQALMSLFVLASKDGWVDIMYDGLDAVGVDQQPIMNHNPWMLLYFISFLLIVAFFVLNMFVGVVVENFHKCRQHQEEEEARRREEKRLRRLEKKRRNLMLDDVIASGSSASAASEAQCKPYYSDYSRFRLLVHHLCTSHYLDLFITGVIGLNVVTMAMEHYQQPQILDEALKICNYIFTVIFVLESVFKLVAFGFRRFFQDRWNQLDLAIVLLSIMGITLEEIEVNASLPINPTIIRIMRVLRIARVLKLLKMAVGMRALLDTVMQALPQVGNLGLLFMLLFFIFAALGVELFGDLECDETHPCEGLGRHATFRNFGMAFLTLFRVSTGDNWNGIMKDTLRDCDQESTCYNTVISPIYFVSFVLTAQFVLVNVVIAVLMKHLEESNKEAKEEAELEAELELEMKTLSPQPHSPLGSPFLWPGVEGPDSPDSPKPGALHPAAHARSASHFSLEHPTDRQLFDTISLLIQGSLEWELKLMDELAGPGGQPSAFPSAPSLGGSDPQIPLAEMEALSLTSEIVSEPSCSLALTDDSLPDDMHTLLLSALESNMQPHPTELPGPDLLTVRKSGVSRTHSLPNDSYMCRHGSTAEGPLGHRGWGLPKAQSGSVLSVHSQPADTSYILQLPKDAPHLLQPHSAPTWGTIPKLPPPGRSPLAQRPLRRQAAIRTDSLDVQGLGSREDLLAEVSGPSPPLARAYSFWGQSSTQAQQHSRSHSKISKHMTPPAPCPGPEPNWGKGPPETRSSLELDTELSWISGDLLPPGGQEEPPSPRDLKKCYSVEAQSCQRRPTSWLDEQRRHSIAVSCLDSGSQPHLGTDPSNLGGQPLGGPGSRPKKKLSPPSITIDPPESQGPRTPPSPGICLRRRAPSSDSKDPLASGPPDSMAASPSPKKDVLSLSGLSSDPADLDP

As for `O=C(CCn1ccnc1-c1ccccc1)NCCN1CCN(c2ccc(F)cc2)CC1` [Compound No. 74, 1-N-{2-[4-(4-fluorophenyl)piperazin-1-yl]ethyl}carbamoylethyl-2-phenylimidazole], the inhibition at 10 µM in assay [1] was found to be 49.8%. The inhibition at 100 µM in assay [2] was found to be 37.6 ± 0.5%. Besides, the IC50 in assay [3] was 14.5 ± 0.68 µM.
As to `O=C(CCn1cnc(-c2ccccc2)c1)NCCN1CCN(C(c2ccccc2)c2ccccc2)CC1` [Compound No. 55, 1-N-[2-(4-diphenylmethylpiperazin-1-yl)ethyl]carbamoylethyl-4-phenylimidazole], the inhibition at 10 µM in assay [1] was determined as 49.6%. Besides, the inhibition at 100 µM in assay [2] was 51.9 ± 0.1%. Also, the IC50 in assay [3] amounted to 8.66 ± 0.12 µM.
In the case of `Cc1cccc(N2CCN(C(=O)CCn3cnc(-c4ccccc4)c3)CC2)c1C` [Compound No. 3, 1-N-[4-(2,3-dimethylphenyl)piperazin-1-yl]carbonylethyl-4-phenylimidazole], in assay [1], the inhibition at 10 µM turned out to be 55.5%. The inhibition at 100 µM in assay [2] amounted to 64.7 ± 2.2%. In assay [3], the IC50 was 4.89 ± 0.44 µM.
Regarding “1-N-[4-(4-chlorophenyl)(phenyl)methylpiperazin-1-yl]carbonylethyl-4-methylimidazole [Compound No. 45]”, the “FDSS (%, 10 μM)” value in assay [1] was 47.90%. Moreover, in assay [2], the “HEK293 (%, 100 μM)” value turned out to be 64.7 ± 2.2%. Further, the IC50 in assay [3] was determined as 5.46 ± 0.57 µM.
Consider `O=C(CCn1cnc(-c2ccccc2)c1)N1CCN(Cc2ccc(Cl)cc2)CC1` [Compound No. 5, 1-N-[4-(4-chlorobenzyl)piperazin-1-yl]carbonylethyl-4-phenylimidazole], for which the inhibition at 10 µM in assay [1] was 64.7%. Also, the inhibition at 100 µM in assay [2] was found to be 86.5 ± 1.8%. Further, the IC50 in assay [3] was determined as 3 ± 0.26 µM.
On to “1-N-[4-(4-chlorophenyl)(phenyl)methylpiperazin-1-yl]carbonylethyl-2-methylimidazole [Compound No. 46]”, for which, in assay [1], the “FDSS (%, 10 μM)” value is listed as 51.94%. In addition, the “HEK293 (%, 100 μM)” value in assay [2] was determined as 67.6 ± 1.3%. The IC50 in assay [3] was found to be 4.97 ± 0.18 µM.
Regarding “1-N-{2-[4-(4-chlorophenyl) (phenyl)methylpiperazin-1-yl]ethyl}carbamoylethyl-4-phenylimidazole [Compound No. 64]”, the “FDSS (%, 10 μM)” value in assay [1] was found to be 60.48%. The “HEK293 (%, 100 μM)” value in assay [2] was determined as 95.8 ± 0.7%. Besides, the IC50 in assay [3] turned out to be 1.39 ± 0.07 µM.
On to `O=C(CCn1cnc(-c2ccccc2)c1)N1CCN(c2ccccc2F)CC1` [Compound No. 20, 1-N-[4-(2-fluorophenyl)piperazin-1-yl]carbonylethyl-4-phenylimidazole], for which the inhibition at 10 µM in assay [1] worked out at 45.2%. Moreover, the inhibition at 100 µM in assay [2] turned out to be 22.9 ± 1.4%. Further, the IC50 in assay [3] turned out to be 22.3 ± 1.46 µM.
As for `O=C(CCn1cnc(-c2ccccc2)c1)N1CCN(c2cccc(Cl)c2)CC1` [Compound No. 25, 1-N-[4-(3-chlorophenyl)piperazin-1-yl]carbonylethyl-4-phenylimidazole], the inhibition at 10 µM in assay [1] was 63.7%. Moreover, the inhibition at 100 µM in assay [2] came out at 74.3 ± 1.3%. The IC50 in assay [3] was found to be 4.35 ± 0.14 µM.
Turning to `O=C(CCn1ccnc1-c1ccccc1)N1CCN(Cc2ccc(Cl)c(Cl)c2)CC1` [Compound No. 18, 1-N-[4-(3,4-dichlorobenzyl)piperazin-1-yl]carbonylethyl-2-phenylimidazole], in assay [1], the inhibition at 10 µM worked out at 39.3%. The inhibition at 100 µM in assay [2] was determined as 50 ± 0.6%. Besides, the IC50 in assay [3] is 9.36 ± 0.65 µM.
In the same order, the values of `O=C(CCn1ccnc1-c1ccccc1)N1CCN(C(c2ccccc2)c2ccccc2)CC1` [Compound No. 13, 1-N-(4-diphenylmethylpiperazin-1-yl)carbonylethyl-2-phenylimidazole] are 54.7%, 71.1 ± 3.3% and 3.67 ± 0.23 µM.
On to “1-N-{2-[4-(4-chlorophenyl) (phenyl)methylpiperazin-1-yl]ethyl}carbamoylethyl-2-phenylimidazole [Compound No. 63]”, for which the “FDSS (%, 10 μM)” value in assay [1] is recorded as 58.64%. In assay [2], the “HEK293 (%, 100 μM)” value turned out to be 89.1 ± 1.3%. Also, the concentration for half-maximal inhibition (IC50) in assay [3] was found to be 2.11 ± 0.11 µM.
Regarding `O=C(CCn1ccnc1-c1ccccc1)NCCN1CCN(C(c2ccccc2)c2ccccc2)CC1`, the inhibition at 10 µM in assay [1] was 60.8%. Also, the inhibition at 100 µM in assay [2] was 29.1 ± 1.7%. In addition, the IC50 in assay [3] is 18 ± 0.92 µM.
